According to ChEMBL document CHEMBL1201862, “PubChem BioAssay data set” (2004):
The source made the active and inactive calls.

Key:
[1] = target: T1, Luciferin 4-monooxygenase (Photinus pyralis, UniProt P08659); assay: Counter Screen for Luciferase-based Assay Positives. [Related pubchem assays: 620, 618, 411 ]
cells [2] = assay type: functional, cell-based
[3] = inhibitors of intracellular T. cruzi replication, confirmation, NIH3T3 host cells, beta-gal luminescence (AID 2044); assay type: functional, cell-based;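 note: intracellular parasites grown in NIH/3T3 mouse fibroblasts as host cells; luminescent beta-galactosidase reporter signal from transgenic T. cruzi replicating inside host cells; inhibitors lower the luminescence signal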
cells [4] = assay type: functional, cell-based; remark: listed apart in the source
HT-1080 = assay: cytotoxicity in HT1080 fibrosarcoma cells, cell-based, fluorescence readout (AID 620); assay type: functional; details: Homo sapiens
[5] = cytotoxicity toward NIH3T3 fibroblasts, dose response, counter-screen, cell-based, ATP luminescence, mouse fibroblasts (AID 2010); assay type: functional;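 note: cells exposed to compound for about 90 hours before reading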
Nonstructural protein 1 = Nonstructural protein 1 (Influenza A virus, UniProt Q194T2); assay type: functional, Influenza A virus (A/California/07/2009(H1N1))
[6] = target: T2, Microphthalmia-associated transcription factor (Homo sapiens, UniProt O75030); assay: TRPM1 promoter luciferase signal decrease, dose response, MITF inhibitor project, cell-based, SK-MEL-5, cherry-picked, set 3 (AID 493073); assay type: functional
T2 sequence (O75030 whole entry): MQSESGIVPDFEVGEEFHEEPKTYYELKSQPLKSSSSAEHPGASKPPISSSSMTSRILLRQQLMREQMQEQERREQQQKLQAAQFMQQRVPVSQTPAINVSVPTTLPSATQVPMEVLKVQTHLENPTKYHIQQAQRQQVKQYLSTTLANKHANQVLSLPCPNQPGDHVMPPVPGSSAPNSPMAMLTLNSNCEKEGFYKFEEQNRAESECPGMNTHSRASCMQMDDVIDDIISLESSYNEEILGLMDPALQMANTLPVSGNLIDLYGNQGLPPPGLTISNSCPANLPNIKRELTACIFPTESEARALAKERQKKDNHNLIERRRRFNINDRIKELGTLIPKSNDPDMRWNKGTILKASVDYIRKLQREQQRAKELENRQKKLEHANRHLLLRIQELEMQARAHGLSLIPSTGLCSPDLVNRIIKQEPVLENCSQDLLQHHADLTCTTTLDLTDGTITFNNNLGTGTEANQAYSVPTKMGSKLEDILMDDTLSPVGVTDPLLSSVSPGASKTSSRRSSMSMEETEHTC

A-375 [7] = assay: A375 melanoma cell viability reduction, dose response, counter-screen for MITF modulator project, cherry-pick samples, set 2 (AID 540335); assay type: functional, cell-based; details: Homo sapiens
[8] = Shn3 3'UTR reporter inhibitors, dose response, cell-based, Clone20 osteoblasts, firefly luciferase, cherry-picked (AID 624132); assay type: functional;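 note: firefly luciferase luminescence from reporter carrying the Shn3 3'UTR in osteoblasts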
[9] = HepG2 cell cytotoxicity, dose response, cytotoxicity control for Shn3 inhibitor project, CellTiter-Glo, cherry-picked (AID 624134); assay type: functional, cell-based
[10] = control 3'UTR Renilla luciferase suppression, dose response, counter-screen for Shn3 inhibitor project, cell-based, Clone20-Shn3RL, cherry-picked (AID 624133); assay type: functional
Coagulation factor XII = target: T3, Coagulation factor XII (Homo sapiens, UniProt P00748); assay type: functional;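 note: activated factor XIIa alpha cleaving a fluorogenic AMC peptide substrate; inhibitor potency from loss of enzyme activity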
T3 sequence (P00748 whole entry): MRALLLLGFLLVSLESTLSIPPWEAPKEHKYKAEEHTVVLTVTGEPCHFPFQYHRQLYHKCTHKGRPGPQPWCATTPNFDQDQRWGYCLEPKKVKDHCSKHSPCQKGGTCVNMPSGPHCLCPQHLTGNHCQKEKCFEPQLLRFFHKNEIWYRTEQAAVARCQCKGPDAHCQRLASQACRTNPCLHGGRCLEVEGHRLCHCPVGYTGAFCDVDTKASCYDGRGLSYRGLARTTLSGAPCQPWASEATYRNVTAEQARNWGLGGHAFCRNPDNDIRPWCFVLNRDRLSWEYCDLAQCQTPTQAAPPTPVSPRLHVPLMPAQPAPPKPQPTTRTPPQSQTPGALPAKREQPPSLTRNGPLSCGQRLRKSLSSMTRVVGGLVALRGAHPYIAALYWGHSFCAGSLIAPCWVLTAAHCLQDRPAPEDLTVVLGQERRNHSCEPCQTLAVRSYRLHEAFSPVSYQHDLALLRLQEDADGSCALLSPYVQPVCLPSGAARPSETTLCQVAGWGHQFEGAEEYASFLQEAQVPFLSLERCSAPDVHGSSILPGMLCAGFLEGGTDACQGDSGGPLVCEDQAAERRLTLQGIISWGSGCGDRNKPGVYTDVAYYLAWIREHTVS

[11] = target: T4, Replicative DNA helicase DnaB (Mycobacterium tuberculosis, UniProt P9WMR3); assay: DnaB intein splicing inhibitors, dose response, biochemical, cell-free fluorescence (AID 449749); assay type: functional
T4 sequence (P9WMR3 whole entry): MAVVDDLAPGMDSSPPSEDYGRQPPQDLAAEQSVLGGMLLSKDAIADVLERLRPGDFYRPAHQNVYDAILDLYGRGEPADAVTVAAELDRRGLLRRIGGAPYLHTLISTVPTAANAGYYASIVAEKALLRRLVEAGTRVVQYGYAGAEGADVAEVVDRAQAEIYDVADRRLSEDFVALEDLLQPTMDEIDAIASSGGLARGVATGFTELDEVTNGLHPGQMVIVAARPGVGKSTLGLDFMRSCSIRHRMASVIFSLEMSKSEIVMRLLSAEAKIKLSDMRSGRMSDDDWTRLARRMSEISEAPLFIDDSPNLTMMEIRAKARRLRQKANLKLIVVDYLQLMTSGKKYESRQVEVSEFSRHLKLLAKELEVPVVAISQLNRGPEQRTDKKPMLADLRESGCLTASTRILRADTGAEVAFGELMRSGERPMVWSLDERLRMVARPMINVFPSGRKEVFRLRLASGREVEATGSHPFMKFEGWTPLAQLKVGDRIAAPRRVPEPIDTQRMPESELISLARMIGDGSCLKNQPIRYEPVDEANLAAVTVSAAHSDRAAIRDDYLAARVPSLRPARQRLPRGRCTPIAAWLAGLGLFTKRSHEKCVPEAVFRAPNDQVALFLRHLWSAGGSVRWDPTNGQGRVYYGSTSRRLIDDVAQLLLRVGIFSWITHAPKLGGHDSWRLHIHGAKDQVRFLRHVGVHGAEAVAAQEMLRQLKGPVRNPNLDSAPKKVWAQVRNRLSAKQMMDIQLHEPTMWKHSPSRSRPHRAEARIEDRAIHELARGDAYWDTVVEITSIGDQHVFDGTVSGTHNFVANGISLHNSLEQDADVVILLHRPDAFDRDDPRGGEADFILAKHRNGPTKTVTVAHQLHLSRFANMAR

Protein RecA = target: T5, Protein RecA (Mycobacterium tuberculosis, UniProt P9WHJ3); assay: Fluorescence Cell-Free Homogeneous Dose Retest to Identify Inhibitors of RecA-Intein Splicing Activity. [Related pubchem assays (depositor defined):AID2097, AID2223, AID489010, AID492950]; assay type: functional
T5 sequence (P9WHJ3 whole entry): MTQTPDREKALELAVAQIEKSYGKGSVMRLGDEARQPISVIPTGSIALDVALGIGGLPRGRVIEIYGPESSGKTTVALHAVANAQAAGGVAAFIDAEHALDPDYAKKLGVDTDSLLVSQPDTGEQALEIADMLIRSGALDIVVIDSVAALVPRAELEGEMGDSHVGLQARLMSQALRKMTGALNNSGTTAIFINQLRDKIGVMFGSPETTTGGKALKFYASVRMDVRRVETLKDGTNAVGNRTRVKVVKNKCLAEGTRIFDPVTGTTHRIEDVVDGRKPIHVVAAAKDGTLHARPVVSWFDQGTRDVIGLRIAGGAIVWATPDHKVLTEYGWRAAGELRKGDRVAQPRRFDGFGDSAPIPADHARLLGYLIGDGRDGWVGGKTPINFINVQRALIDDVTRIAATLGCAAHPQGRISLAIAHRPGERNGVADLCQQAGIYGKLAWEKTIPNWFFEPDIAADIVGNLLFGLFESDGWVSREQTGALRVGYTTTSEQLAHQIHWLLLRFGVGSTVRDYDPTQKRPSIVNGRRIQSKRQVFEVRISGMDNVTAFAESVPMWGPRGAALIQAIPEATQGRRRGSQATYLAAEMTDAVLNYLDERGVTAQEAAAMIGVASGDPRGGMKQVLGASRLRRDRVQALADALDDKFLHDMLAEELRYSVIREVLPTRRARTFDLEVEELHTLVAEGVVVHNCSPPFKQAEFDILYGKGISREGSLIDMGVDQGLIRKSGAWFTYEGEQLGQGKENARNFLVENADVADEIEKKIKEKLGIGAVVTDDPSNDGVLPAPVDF

A-375 [12] = assay: MITF: Counter assay: A375 proliferation Measured in Cell-Based System Using Plate Reader - 2084-03_Inhibitor_Dose_DryPowder_Activity. [Related pubchem assays (depositor defined):AID488944]; assay type: functional; details: Homo sapiens
Escherichia coli = assay: microbe, parasite or virus in culture
[13] = target: Dual specificity tyrosine-phosphorylation-regulated kinase 1A (Rattus norvegicus, UniProt Q63470); assay type: biochemical, Homo sapiens
[14] = DNA binding of candidate compounds, dose response, artefact control for RAD54 inhibitor project, biochemical, fluorescence polarization, cherry-pick (AID 651673); assay type: functional
[15] = target: T6, DNA repair and recombination protein RAD54-like (Homo sapiens, UniProt Q92698); assay: inhibitors of human RAD54 branch migration, confirmation, biochemical, fluorescence, cherry-picked samples, dose series (AID 651657); assay type: functional
T6 sequence (Q92698 whole entry): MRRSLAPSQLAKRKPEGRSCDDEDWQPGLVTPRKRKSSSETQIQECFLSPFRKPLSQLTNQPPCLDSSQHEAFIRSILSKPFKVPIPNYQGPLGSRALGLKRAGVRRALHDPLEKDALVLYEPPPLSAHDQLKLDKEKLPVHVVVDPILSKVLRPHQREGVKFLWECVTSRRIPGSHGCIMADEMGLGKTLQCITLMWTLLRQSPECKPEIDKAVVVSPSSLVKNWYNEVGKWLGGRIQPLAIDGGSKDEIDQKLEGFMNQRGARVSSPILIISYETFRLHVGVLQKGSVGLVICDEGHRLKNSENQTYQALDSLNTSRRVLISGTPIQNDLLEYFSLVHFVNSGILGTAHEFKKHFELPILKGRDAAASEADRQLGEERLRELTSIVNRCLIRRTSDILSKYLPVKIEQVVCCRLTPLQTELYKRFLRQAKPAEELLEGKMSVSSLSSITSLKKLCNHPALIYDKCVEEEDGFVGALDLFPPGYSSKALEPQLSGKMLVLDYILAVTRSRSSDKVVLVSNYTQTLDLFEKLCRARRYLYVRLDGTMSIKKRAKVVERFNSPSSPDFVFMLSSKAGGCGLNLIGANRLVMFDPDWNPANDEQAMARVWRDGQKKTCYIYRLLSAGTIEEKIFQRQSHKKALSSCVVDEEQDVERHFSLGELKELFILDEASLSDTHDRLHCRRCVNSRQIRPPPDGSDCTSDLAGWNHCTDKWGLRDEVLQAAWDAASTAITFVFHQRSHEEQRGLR

[16] = target: T1, Luciferin 4-monooxygenase; assay: firefly luciferase enzyme inhibitors, dose response, biochemical, luminescence (AID 1891)
[17] = Luminescence Cell-Based Dose Confirmation HTS to Identify Inhibitors of Platelet Dense Granule Release. [Related pubchem assays: 1663 (Primary HTS), 1678 (Summary of Project)]; assay type: functional
Trypsin = Trypsin (Sus scrofa, UniProt P00761); assay: porcine trypsin inhibitors, dose response, selectivity assay for Rce1 protease inhibitor project, biochemical, quenched peptide fluorescence, cherry-pick (AID 488789)
CAAX prenyl protease 1 = CAAX prenyl protease 1 (Saccharomyces cerevisiae S288c, UniProt P47154); assay: Ste24 protease inhibitors, dose response, biochemical, S. cerevisiae, plate reader, cherry-pick (AID 488815)
CAAX prenyl protease 2 = CAAX prenyl protease 2 (Homo sapiens, UniProt Q9Y256); assay: human Rce1 protease inhibitors, dose response, biochemical, yeast membranes, quenched-peptide fluorescence, cherry-pick (AID 588849)
[18] = target: Dual specificity protein phosphatase 3 (Homo sapiens, UniProt P51452); assay: SAR VHR1 Fluorescent Assay for In Vitro dose response studies Set 3. [Related pubchem assays (depositor defined):AID1654, AID1661, AID1878]; assay type: functional
Sequence of Dual specificity protein phosphatase 3 (P51452 whole entry): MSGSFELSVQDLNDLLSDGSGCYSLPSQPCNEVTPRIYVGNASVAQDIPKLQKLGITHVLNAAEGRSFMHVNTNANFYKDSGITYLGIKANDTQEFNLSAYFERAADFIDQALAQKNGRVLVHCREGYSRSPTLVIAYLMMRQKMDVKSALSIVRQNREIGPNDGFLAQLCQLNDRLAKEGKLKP

T1 sequence (P08659 whole entry): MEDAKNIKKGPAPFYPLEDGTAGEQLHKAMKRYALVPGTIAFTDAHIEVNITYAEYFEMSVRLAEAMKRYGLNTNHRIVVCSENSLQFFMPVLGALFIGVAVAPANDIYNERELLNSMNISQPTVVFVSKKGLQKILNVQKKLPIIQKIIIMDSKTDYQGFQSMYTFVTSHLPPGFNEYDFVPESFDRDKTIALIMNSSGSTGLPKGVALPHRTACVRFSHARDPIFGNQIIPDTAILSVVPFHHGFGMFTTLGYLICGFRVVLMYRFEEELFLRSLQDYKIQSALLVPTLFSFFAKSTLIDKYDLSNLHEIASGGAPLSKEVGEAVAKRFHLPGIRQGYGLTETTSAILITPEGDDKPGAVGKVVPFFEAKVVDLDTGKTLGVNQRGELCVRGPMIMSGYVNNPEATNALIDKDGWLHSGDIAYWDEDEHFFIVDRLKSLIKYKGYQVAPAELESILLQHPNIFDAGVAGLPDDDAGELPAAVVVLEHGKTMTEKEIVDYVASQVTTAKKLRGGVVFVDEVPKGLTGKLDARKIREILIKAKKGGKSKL
Sequence of CAAX prenyl protease 2 (Q9Y256 whole entry): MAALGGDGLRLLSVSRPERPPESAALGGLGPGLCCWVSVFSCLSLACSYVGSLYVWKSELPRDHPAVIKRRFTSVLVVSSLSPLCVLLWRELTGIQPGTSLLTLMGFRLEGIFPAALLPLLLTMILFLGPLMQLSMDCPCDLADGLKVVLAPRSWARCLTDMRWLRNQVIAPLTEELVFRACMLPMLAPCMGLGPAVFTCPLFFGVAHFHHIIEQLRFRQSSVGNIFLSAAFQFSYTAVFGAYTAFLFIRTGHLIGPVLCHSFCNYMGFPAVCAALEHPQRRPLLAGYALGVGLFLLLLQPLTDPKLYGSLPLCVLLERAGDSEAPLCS
Sequence of Trypsin (P00761 whole entry): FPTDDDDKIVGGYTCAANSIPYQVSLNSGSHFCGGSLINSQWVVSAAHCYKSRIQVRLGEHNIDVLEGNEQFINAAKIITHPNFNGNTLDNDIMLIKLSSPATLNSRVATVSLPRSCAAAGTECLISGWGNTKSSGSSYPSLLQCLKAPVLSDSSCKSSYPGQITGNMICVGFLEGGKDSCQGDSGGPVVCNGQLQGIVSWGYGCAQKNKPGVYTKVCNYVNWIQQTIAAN
Sequence of Nonstructural protein 1 (Q194T2 whole entry): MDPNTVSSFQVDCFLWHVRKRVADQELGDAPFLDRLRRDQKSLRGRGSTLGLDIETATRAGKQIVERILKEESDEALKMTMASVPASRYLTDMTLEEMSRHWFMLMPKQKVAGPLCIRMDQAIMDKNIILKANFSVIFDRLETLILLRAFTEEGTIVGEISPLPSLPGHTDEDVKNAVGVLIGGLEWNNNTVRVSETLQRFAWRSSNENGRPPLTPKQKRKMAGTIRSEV
Sequence of CAAX prenyl protease 1 (P47154 whole entry): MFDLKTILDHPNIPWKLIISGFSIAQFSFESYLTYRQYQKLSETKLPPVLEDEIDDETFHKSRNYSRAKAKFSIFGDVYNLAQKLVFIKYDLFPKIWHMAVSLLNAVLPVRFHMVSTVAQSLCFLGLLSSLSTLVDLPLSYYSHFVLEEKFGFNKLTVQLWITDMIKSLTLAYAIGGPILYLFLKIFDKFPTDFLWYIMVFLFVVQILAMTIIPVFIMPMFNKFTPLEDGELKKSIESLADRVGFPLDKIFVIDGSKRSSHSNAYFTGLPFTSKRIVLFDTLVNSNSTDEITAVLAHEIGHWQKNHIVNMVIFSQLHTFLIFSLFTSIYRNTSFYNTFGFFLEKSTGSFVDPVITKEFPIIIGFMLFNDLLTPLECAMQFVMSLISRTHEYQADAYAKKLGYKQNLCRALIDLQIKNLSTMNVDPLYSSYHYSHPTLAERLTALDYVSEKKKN

## Oc1c(CN2CCCCC2)cc(COCc2ccccc2)c2cccnc12
[1]
  EC50: > 100 µM (not active)
Cells [2]
  EC50: 7.62 µM (active)
[3]
  EC50: 4.04 µM (active)
Cells [4]
  EC50: > 350 µM (not active)
HT-1080
  EC50: 27.9 µM (active)
[5]
  EC50: 6.52 µM (active)
Nonstructural protein 1
  IC50: 1.86 µM (active)
[6]
  AC50: 2.17 µM (active)
A-375 [7]
  AC50: 13.5 µM (active)
[8]
  AC50: 0.537 µM (active)
[9]
  AC50: 10.8 µM (active)
[10]
  AC50: 7.15 µM (active)

## O=c1c(Cl)c(Cl)cnn1Cc1ccc(F)cc1
Coagulation factor XII
  IC50: > 50 µM (inactive)
[6]
  AC50: 8.9 µM (active)
[11]
  AC50: 39.5 µM (active)
Protein RecA
  EC50: 11.3 µM (active)
A-375 [12]
  AC50: 30.8 µM (active)

## COc1ccccc1C(C[N+](=O)[O-])c1c[nH]c2ccccc12 (centres undefined)
Escherichia coli
  AC50: 90.9 µM (active)

## COc1ccc2cc3cc(C(=O)NCCCN4CCOCC4)oc3nc2c1
[3]
  EC50: 2.2 µM (active)
[5]
  EC50: > 60 µM (not active)
[13]
  AC50: 5.51 µM (active)
[14]
  AC50: 55.3 µM (active)
[15]
  AC50: 36.7 µM (active)

## CCn1c(-c2cccs2)nc2ccccc21
[16]
  EC50: > 112 µM (not active)
[17]
  EC50: > 112 µM (not active)
Trypsin
  AC50: 6.83 µM (active)
CAAX prenyl protease 1
  AC50: 2.54 µM (active)
CAAX prenyl protease 2
  AC50: 11.6 µM (active)

## CSc1ccc2nc(Nc3nnc(-c4ccc5c(c4)OCCO5)o3)sc2c1
[18]
  IC50: 0.682 µM (active)
